According to patent US20240190880A1 (THE REGENTS OF THE UNIVERSITY OF MICHIGAN, priority 2021, published 2024):

target: T1, ER (Homo sapiens, UniProt P03372); experiment: ER degradation activity, in-cell western blot analysis in T47D cells; format: cell-based; details: 16 hours, Table A does not say which cell line (T47D or MCF7), read-out: Potency (DC50)
T1 construct: host or cells: T47D and MCF7 human breast cancer cells
T1 sequence (P03372 1-595): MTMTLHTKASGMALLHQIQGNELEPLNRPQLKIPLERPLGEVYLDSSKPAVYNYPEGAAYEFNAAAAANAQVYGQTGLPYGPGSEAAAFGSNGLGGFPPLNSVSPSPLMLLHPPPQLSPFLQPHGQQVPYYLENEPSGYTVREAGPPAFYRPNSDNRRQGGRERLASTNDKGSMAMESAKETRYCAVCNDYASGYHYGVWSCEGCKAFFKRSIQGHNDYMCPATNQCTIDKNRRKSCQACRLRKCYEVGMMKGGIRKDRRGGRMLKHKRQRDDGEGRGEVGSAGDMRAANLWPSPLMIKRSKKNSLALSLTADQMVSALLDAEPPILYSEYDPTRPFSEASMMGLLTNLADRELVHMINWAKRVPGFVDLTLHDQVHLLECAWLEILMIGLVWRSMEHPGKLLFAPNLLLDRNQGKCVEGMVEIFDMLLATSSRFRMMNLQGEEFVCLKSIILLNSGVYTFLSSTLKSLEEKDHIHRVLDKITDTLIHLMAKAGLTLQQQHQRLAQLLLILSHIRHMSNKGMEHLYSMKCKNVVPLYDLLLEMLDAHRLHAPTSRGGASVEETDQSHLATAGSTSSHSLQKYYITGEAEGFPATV
In short: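 ER protein remaining after 16 h compound exposure is quantified in T47D cells by in-cell western, with a no-primary-antibody background control. Values are percentages of DMSO-treated signal.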

DC50 [nM]	SMILES
10 to 100	CN(C1CCN(c2ccc([C@@H]3c4ccc(O)cc4CC[C@@H]3c3ccccc3)cc2)CC1)N1CCC(C(=O)N2Cc3cc4c(cc3C2)C(=O)N(C2CCC(=O)NC2=O)C4)CC1 (mixture of isomers) [E 288, 3-(6-(1-((1-(4-((1R,2S)-6-hydroxy-2-phenyl-1,2,3,4-tetrahydronaphthalen-1-yl)phenyl)piperidin-4-yl)(methyl)amino)piperidine-4-carbonyl)-1-oxo-3,5,6,7-tetrahydropyrrolo[3,4-f]isoindol-2(1H)-yl)piperidine-2,6-dione]
> 100	O=C1CCC(N2C(=O)c3cc4c(cc3C2=O)CN(CC(=O)N2CCC3(CC2)CCN(c2ccc([C@@H]5c6ccc(O)cc6CC[C@@H]5c5ccccc5)cn2)CC3)C4)C(=O)N1 (mixture of isomers) [E 297, Rac-2-(2,6-dioxopiperidin-3-yl)-6-(2-(9-(5-((1S,2S)-6-hydroxy-2-phenyl-1,2,3,4-tetrahydronaphthalen-1-yl)pyridin-2-yl)-3,9-diazaspiro[5.5]undecan-3-yl)-2-oxoethyl)-6,7-dihydropyrrolo[3,4-f]isoindole-1,3(2H,5H)-dione]
> 100	O=C1CCC(N2C(=O)c3cc4c(cc3C2=O)CN(CC(=O)N2CCC3(CC2)CCN(c2ncc([C@@H]5c6ccc(O)cc6CC[C@@H]5c5ccccc5)cn2)CC3)C4)C(=O)N1 (mixture of isomers) [E 298, Rac-2-(2,6-dioxopiperidin-3-yl)-6-(2-(9-(5-((1S,2S)-6-hydroxy-2-phenyl-1,2,3,4-tetrahydronaphthalen-1-yl)pyrimidin-2-yl)-3,9-diazaspiro[5.5]undecan-3-yl)-2-oxoethyl)-6,7-dihydropyrrolo[3,4-f]isoindole-1,3(2H,5H)-dione]
> 100	CN(C1CCN(c2ccc([C@@H]3c4ccc(O)cc4CC[C@@H]3c3ccccc3)cc2)CC1)N1CCC(CN2Cc3cc4c(cc3C2)C(=O)N(C2CCC(=O)NC2=O)C4)CC1 (mixture of isomers) [E 300, 3-(6-((1-((1-(4-((1R,2S)-6-hydroxy-2-phenyl-1,2,3,4-tetrahydronaphthalen-1-yl)phenyl)piperidin-4-yl)(methyl)amino)piperidin-4-yl)methyl)-1-oxo-3,5,6,7-tetrahydropyrrolo[3,4-f]isoindol-2(1H)-yl)piperidine-2,6-dione]
> 100	O=C1CCC(N2C(=O)c3cc4c(cc3C2=O)CN(CC(=O)N2CCC3(CC2)CCN(c2cnc([C@@H]5c6ccc(O)cc6CC[C@@H]5c5ccccc5)cn2)CC3)C4)C(=O)N1 (mixture of isomers) [E 304, Rac-2-(2,6-dioxopiperidin-3-yl)-6-(2-(9-(5-((1S,2S)-6-hydroxy-2-phenyl-1,2,3,4-tetrahydronaphthalen-1-yl)pyrazin-2-yl)-3,9-diazaspiro[5.5]undecan-3-yl)-2-oxoethyl)-6,7-dihydropyrrolo[3,4-f]isoindole-1,3(2H,5H)-dione]
> 100	O=C1CCC(N2C(=O)c3cc4c(cc3C2=O)CN(CC(=O)N2CCC3(CC2)CCN(c2ccc([C@@H]5c6ccc(O)cc6CC[C@@H]5c5ccccc5)nc2)CC3)C4)C(=O)N1 (mixture of isomers) [E 305, Rac-2-(2,6-dioxopiperidin-3-yl)-6-(2-(9-(6-((1S,2S)-6-hydroxy-2-phenyl-1,2,3,4-tetrahydronaphthalen-1-yl)pyridin-3-yl)-3,9-diazaspiro[5.5]undecan-3-yl)-2-oxoethyl)-6,7-dihydropyrrolo[3,4-f]isoindole-1,3(2H,5H)-dione]
> 100	O=C1CCC(N2C(=O)c3cc4c(cc3C2=O)CN(CC(=O)N2CCC3(CC2)CCN(c2ccc([C@@H]5c6ccc(O)cc6CC[C@@H]5c5ccccc5)nn2)CC3)C4)C(=O)N1 (mixture of isomers) [E 306, Rac-2-(2,6-dioxopiperidin-3-yl)-6-(2-(9-(6-((1S,2S)-6-hydroxy-2-phenyl-1,2,3,4-tetrahydronaphthalen-1-yl)pyridazin-3-yl)-3,9-diazaspiro[5.5]undecan-3-yl)-2-oxoethyl)-6,7-dihydropyrrolo[3,4-f]isoindole-1,3(2H,5H)-dione]
> 100	C[C@@H]1Cc2cc(O)ccc2[C@@H](c2c(F)cc(N3CCN(C(=O)[C@H]4CC[C@@H](N5Cc6cc7c(cc6C5)C(=O)N(C5CCC(=O)NC5=O)C7=O)CC4)CC3)cc2F)N1CC(F)F (mixture of isomers) [E 352, Rac-6-((1R,4s)-4-(4-(4-((1S,3R)-2-(2,2-difluoroethyl)-6-hydroxy-3-methyl-1,2,3,4-tetrahydroisoquinolin-1-yl)-3,5-difluorophenyl)piperazine-1-carbonyl)cyclohexyl)-2-(2,6-dioxopiperidin-3-yl)-6,7-dihydropyrrolo[3,4-f]isoindole-1,3(2H,5H)-dione]
> 100	C[C@@H]1Cc2cc(O)ccc2[C@@H](c2c(F)cc(N3CCN(C(=O)[C@H]4CC[C@H](N5Cc6cc7c(cc6C5)C(=O)N(C5CCC(=O)NC5=O)C7=O)CC4)CC3)cc2F)N1CC(F)F (mixture of isomers) [E 353, rac-6-((1S,4r)-4-(4-(4-((1S,3R)-2-(2,2-difluoroethyl)-6-hydroxy-3-methyl-1,2,3,4-tetrahydroisoquinolin-1-yl)-3,5-difluorophenyl)piperazine-1-carbonyl)cyclohexyl)-2-(2,6-dioxopiperidin-3-yl)-6,7-dihydropyrrolo[3,4-f]isoindole-1,3(2H,5H)-dione]
> 100	CN(C1CN(c2ccc([C@@H]3c4ccc(O)cc4CC[C@@H]3c3ccccc3)cc2)C1)[C@H]1CC[C@H](C(=O)N2Cc3cc4c(cc3C2)C(=O)N(C2CCC(=O)NC2=O)C4)CC1 (single isomer, unassigned) [E 355]

same assay, conditions: compounds 16 hours, Table A does not say whether T47D or MCF7, read-out: Potency (DC50)

DC50 [nM]	SMILES
> 100	O=C1CCC(N2C(=O)c3cc4c(cc3C2=O)CN(CC(=O)N2CCC3(CC2)CCN(c2ccc([C@@H]5c6ccc(O)cc6OC[C@@H]5c5ccccc5)cc2)CC3)C4)C(=O)N1 (mixture of isomers) [E 467, 2-(2,6-dioxopiperidin-3-yl)-6-(2-(9-(4-(7-hydroxy-3-phenylchroman-4-yl)phenyl)-3,9-diazaspiro[5.5]undecan-3-yl)-2-oxoethyl)-6,7-dihydropyrrolo[3,4-f]isoindole-1, 3(2H,5H)-dione]
10 to 100	C[C@@H]1Cc2c(ccc3[nH]ncc23)[C@@H](c2c(F)cc(C3=CCC(C(=O)N4CCC(N5Cc6cc7c(cc6C5)C(=O)N(C5CCC(=O)NC5=O)C7=O)CC4)CC3)cc2F)N1CC(F)F (mixture of isomers) [E 468, 6-(1-(4′-((6S,8R)-7-(2,2-difluoroethyl)-8-methyl-6,7,8,9-tetrahydro-3H-pyrazolo[4,3-f]isoquinolin-6-yl)-3′,5′-difluoro-2,3,4,5-tetrahydro-[1,1′-biphenyl]-4-carbonyl)piperidin-4-yl)-2-(2,6-dioxopiperidin-3-yl)-6,7-dihydropyrrolo[3,4-f]isoindole-1,3(2H,5H)-dione]
> 100	CC1(C(=O)N2CCC(N3Cc4cc5c(cc4C3)C(=O)N(C3CCC(=O)NC3=O)C5=O)CC2)CCN(c2ccc([C@@H]3c4ccc(O)cc4CC[C@@H]3c3ccccc3)cc2)CC1 (mixture of isomers) [E 488, rac-2-(2,6-dioxopiperidin-3-yl)-6-(1-(1-(4-((1R,2S)-6-hydroxy-2-phenyl-1,2,3,4-tetrahydronaphthalen-1-yl)phenyl)-4-methylpiperidine-4-carbonyl)piperidin-4-yl)-6,7-dihydropyrrolo[3,4-f]isoindole-1,3(2H,5H)-dione]
10 to 100	O=C1CCC(N2C(=O)c3cc4c(cc3C2=O)CN(C2CCN(C(=O)[C@H]3C[C@@H](Oc5ccc([C@@H]6c7ccc(O)cc7CC[C@@H]6c6ccccc6)cc5)C3)CC2)C4)C(=O)N1 (mixture of isomers) [E 490, 2-(2,6-dioxopiperidin-3-yl)-6-(1-((1SR,3SR)-3-(4-((1R,2S)-6-hydroxy-2-phenyl-1,2,3,4-tetrahydronaphthalen-1-yl)phenoxy)cyclobutane-1-carbonyl)piperidin-4-yl)-6,7-dihydropyrrolo[3,4-f]isoindole-1,3(2H,5H)-dione]
10 to 100	O=C1CCC(N2Cc3cc4c(cc3C2=O)CN(C(=O)[C@H]2CC[C@H](CN3CC(Oc5ccc([C@@H]6c7ccc(O)cc7CC[C@@H]6c6ccccc6)cc5)C3)CC2)C4)C(=O)N1 (mixture of isomers) [E 491]
10 to 100	O=C1CCC(N2C(=O)c3cc4c(cc3C2=O)CN(C[C@H]2CC[C@H](C(=O)N3CC(Oc5ccc([C@@H]6c7ccc(O)cc7CC[C@@H]6c6ccccc6)cc5)C3)CC2)C4)C(=O)N1 (mixture of isomers) [E 498, 2-(2,6-dioxopiperidin-3-yl)-6-(((IRS,4SR)-4-(3-(4-((1R,2S)-6-hydroxy-2-phenyl-1,2,3,4-tetrahydronaphthalen-1-yl)phenoxy)azetidine-1-carbonyl)cyclohexyl)methyl)-6,7-dihydropyrrolo[3,4-f]isoindole-1,3(2H,5H)-dione]
10 to 100	O=C1CCC(N2Cc3cc4c(cc3C2=O)CN(C[C@H]2CC[C@H](C(=O)N3CC(Oc5ccc([C@@H]6c7ccc(O)cc7CC[C@@H]6c6ccccc6)cc5)C3)CC2)C4)C(=O)N1 (mixture of isomers) [E 499, 3-(6-(((IRS,4SR)-4-(3-(4-((1R,2S)-6-hydroxy-2-phenyl-1,2,3,4-tetrahydronaphthalen-1-yl)phenoxy)azetidine-1-carbonyl)cyclohexyl)methyl)-1-oxo-3,5,6,7-tetrahydropyrrolo[3,4-f]isoindol-2(1H)-yl)piperidine-2,6-dione]
